Test [1] concerns Mcl-1 1780 cell line. Briefly: DAPI fluorescence cell-based cytotoxicity (apoptosis) assay, Mcl-1 1780. Also noted: species or system mouse. The note with it: Mcl-1 1780, 24 hours, 125 nM to 1 μM. As to the method: (§1) The mouse leukemia-derived cell lines Mcl-1-1780 and Bcl-2-1863 (Ryan et al., Proc. Nat. Acad. Sci USA, 107, 12895-12900, which is hereby incorporated by reference in its entirety) were obtained under license from Dana Farber Cancer Institute. Cells were grown in RPMI 1640 medium (GIBCO-BRL) with 2 mM L-glutamine, 4.5 g/L glucose, 1.0 mM sodium pyruvate and 5% fetal bovine serum. Cells were expanded in tissue culture in appropriate media and then sub-cultured into 96-well plates at a seeding density of 20,000 cells per well. After incubation for 24 hours, cells were treated with compounds that are titrated into appropriate medium with FCS. Four concentrations of compound were used: 1 μM, 500 nM, 250 nM, and 125 nM. Assay was run in triplicate for each compound at each concentration and averages were calculated. Cells were treated with compound for 24 hours, then fixed with methanol and stained with the DNA-binding agent DAPI (4′,6-diamidino-2-phenylindole). The cells were then examined by fluorescent microscopy; cells in which caspase 3 and caspase 7 have not been activated will emit at […] when excited by […] light. Caspase-mediated cleavage of nucleosomal proteins causes condensed, pyenotic nuclear morphology that may be measured by cell counting.

The subject of test [2] is Bcl-2 1863 cell line. Briefly: DAPI fluorescence cell-based cytotoxicity (apoptosis) assay, Bcl-2 1863. Also noted: species or system mouse. The conditions noted are these: Bcl-2 1863, 24 hours, 125 nM to 1 μM. As to the method: as §1
The subject of test [3] is DHL-6. Briefly: In situ mitochondrial cytochrome c release assay, DHL-6. The class given is cell-based. The note with it: DHL-6 (Bax/Bak-functional), semi-permeabilized cells, 1 hour. The text has this:
(§2) The on-target activity of compound 12 was validated. Changes in mitochondrial integrity were observed utilizing anti-cytochrome c conjugated to Alexa488 (BD). When the mitochondria are intact, they retain cytochrome c and have bright, punctate staining with the antibody whereas cells with compromised mitochondrial integrity will lose cytochrome c and will not stain with the antibody. This can be observed by microscopy as well as measured by a shift in fluorescence on the FL1 channel of a flow cytometer.
(§3) The selective response of mitochondria in semi-permeabilized cell lines to the compounds was observed. The assay was adapted from (Campos et al. (2006) Cytometry Part A. 69(A):515-523, which is hereby incorporated by reference in its entirety).
(§4) Suspension cell lines SUDHL6, SUDHL8, and SUDHL10 were grown in RPMI, washed once in 1×PBS and re-suspended at a concentration of 2e6/ml in assay buffer with 0.0025% Digitonin. Assay buffer; 300 mM Trehalose, 10 mM HEPES-KOH pH 7.7, 80 mM KCl, 1 mM EGTA, 1 mM EDTA, 0.1% BSA. 5 mM Succinate. […] Cytochrome c loss was measured by microscopy. At least 100 cells per treatment were counted and scored as positive for cytochrome c loss if they lacked staining. In both methods DMSO was calculated as 0% cytochrome c loss and the Bim response for DHL6 was used to determine 100% cytochrome c loss.

Test [4] concerns DHL-8. Description: In situ mitochondrial cytochrome c release assay, DHL-8. The class given is cell-based. The conditions noted are these: DHL-8, semi-permeabilized cells, 1 hour.
Description: as §2, §3, §4

Test [5] has as its system DHL-10. Description: In situ mitochondrial cytochrome c release assay, DHL-10. The class given is cell-based. The note with it: DHL-10 (Bax/Bak-deficient), semi-permeabilized cells, 1 hour.
Description: as §2, §3, §4

The results in this text go back to patent publication US10765673B2, “Methods and compositions useful for treating diseases involving Bcl-2 family proteins with quinoline derivatives” (Eutropics Pharmaceuticals, Inc., priority 2012, dated 2020).

Regarding `CCN1CCN(C(c2ccc(C(F)(F)F)cc2)c2ccc3cccnc3c2O)CC1` (centres unmarked) [compound 12, 7-((4-ethylpiperazin-1-yl)(4-(trifluoromethyl)phenyl)methyl)quinolin-8-ol], the “induction of apoptosis (cells exhibiting apoptosis)” value in test [1] is on record as “induce apoptosis”; in test [2], “significantly lesser degree”. Moreover, the cytochrome c release result is reported as “activity” in test [3], “reduced activity” in test [4] and “lack of activity” in test [5].
